Results published in paper PMC6478794, “Identification of a Novel Bcl-2 Inhibitor by Ligand-Based Screening and Investigation of Its Anti-cancer Effect on Human Breast Cancer Cells” (Frontiers in Pharmacology, 2019).
Like-named read-outs stand apart in the source and are kept apart here. Blank lines part the entries; values can stand above or below the compound they belong to.

Tests used:
[1] = set-up: method as in Seymour et al., 2013; Vandenberg and Cory, 2013; conditions: ref Seymour et al., 2013, Vandenberg and Cory, cited from earlier work
hematologic malignancies = conditions: preclinical researches; cited from earlier work
[2] = set-up: method as in Schoenwaelder et al., 2011; conditions: in vivo; ref Schoenwaelder et al., 2011; cited from earlier work
Bcl-xl = conditions: cited from earlier work
Bcl-2 [3] = conditions: cited from earlier work
MDA-MB-231 cells [4] = experiment: Clonogenic assay; type: cell-based, human; conditions: 4 or 8 μM, 48 h, then 10 days
Description: The cells were plated at 200 cells per well in six-well culture plates followed by compound M1 for 48 h. At the end of treatment, the cells were cultured with fresh medium, and were grown at 37°C for 10 days. After colony formation, the cells were washed with PBS and immobilized by 4% formaldehyde at room temperature for 30 min. Finally, the cells were dyed with 0.5% crystal violet.

MDA-MB-231 cells [5] = experiment: Detection of reactive oxygen species (DCFH-DA); type: cell-based, human; conditions: 2 or 4 μM, 48 h
Description: Cells were treated with 2 or 4 μM compound M1 for 48 h. After that, cells were rinsed twice with PBS and incubated with DCFH-DA (10 μmol/L) at 37°C in a darkroom. The fluorescence intensity of DCF was detected at an emission wavelength of 525 nm and excitation wavelength of 488 nm.

MDA-MB-231 cells [6] = experiment: EdU incorporation assay; type: cell-based, human; conditions: 4 or 8 μM, 48 h
Description: Cell Proliferation was measured by Cell Light EdU DNA Cell Proliferation Kit. Cells were plated in 96-well culture plates. Cells were treated with 4 or 8 μM compound M1 for 48 h. At the end of treatment, cells were incubated with EdU reagent for 2 h at 37°C. Four percent of paraformaldehyde was used to fix the cells for 15 min. Then, cells were incubated with 0.5% Triton X-100 for 30 min. Washed cells with PBS three times. After that, cells were dyed with reaction cocktail for 30 min, and stained cell nucleus with 5 μg/mL of Hoechst 33,342 for 30 min. Images were observed by fluorescent microscope.

T47D cells [7] = experiment: Annexin V-FITC/PI apoptosis assay (flow cytometry); type: cell-based, human; conditions: 48 h
Description: Cell apoptosis was measured by Annexin V-FITC/PI double-staining Kit following the manufacturer's protocol. After treatment with 8 or 16 μM compound M1 for 48 h, cells were washed twice with cold phosphate buffer saline and then, suspended in 100 μL binding buffer (BD CAT. NO.556547) with 5 μL Annexin-V (BD CAT. NO.556420) and 5 μL PI (BD CAT. NO.556463). And cells were gently vortexed and incubated at room temperature for 15 min in darkness for flow cytometric (Becton Dickison) analysis.

T47D and BT549 cells = experiment: Western blot of cleaved caspase-3 and cleaved PARP; type: cell-based, human; conditions: 48 h
Description: (§1) After compound M1 treatment, cells were lysed with RIPA buffer supplemented with protease inhibitor (Selleck) on ice for 30 min following by centrifugation at 14,000 × g for 15 min. Protein concentrations of the lysates were determined by BCA assay kit. Equivalent amounts of cellular protein were separated by SDS-PAGE and transferred to polyvinylidene difluoride membranes. And then, the membranes were blocked with 5% skim milk in TBST. The membranes were incubated with primary antibodies and peroxidase-conjugated secondary antibodies. Finally, the membranes were visualized with an enhanced chemiluminescent detection kit.

MDA-MB-231 cells [8] = experiment: Cell viability CCK-8 assay; type: cell-based; conditions: Homo sapiens, 48 h
Description: (§2) The human breast cancer cell line MDA-MB-231, T47D, and BT549, were purchased from Cell Bank of Chinese Academy of Sciences. MDA-MB-231 were cultured in L-15 medium with 10% FBS at 37°C with 100% air, and T47D were cultured in DMEM/High glucose medium with 10% FBS at 37°C with 5% CO2. BT549 was cultured in 1,640 medium with 10% FBS at 37°C with 5% CO2.
(§3) Cell viability was measured by Cell Counting Kit-8 (CCK-8) assay following the manufacturer's protocol. Cells were plated at 5 × 10^3 cells per well in 96-well plates. After compound M1 treatment, cells were incubated with 10 μL CCK-8 for 2 h at 37°C with 5% CO2. The results were determined at 450 nm wave length.

T47D cells [9] = experiment: Western blot of cytochrome c in mitochondrial and cytosol fraction; type: cell-based, human; conditions: 4 or 8 μM, 48 h
Description: as §1

[10] = target: recombinant human Bcl-2 protein (Homo sapiens, UniProt P10415); experiment: Surface plasmon resonance (SPR) binding assay
Description: The interaction between virtual screening candidates and Bcl-2 was determined using a PlexArray HT biological molecular interaction analyzer (PLEXERA LLC, USA). Candidates were covalently immobilized to the surface of sensor chip following the standard coupling reaction guide. Candidates were dissolved in DMSO to a final concentration of 10 μM. To analyze binding signal, a set of concentration gradient (700, 350, 175, 87.5 nM) of Bcl-2 protein were, respectively, diluted with PBST (1x PBS + 0.1% Tween-20, pH 7.4). PBST was also used as running buffer and samples were injected into the flow cell chamber of the sensor chip one by another with rate of 2 μL/s for 300 s. After the injection stage, running buffer was flowed over the chip surface for 300 s at 2 μL/s to allow the bound analytes to dissociate from the Bcl-2. The response unit (RU) of sample dots on the chip surface was recorded by the interaction analyzer during the whole process. In this way, dissociation curves obtained. HBS-P buffer was used as vehicle controls. Lastly, the changes in RU and the binding curve were measured by the PlexeraDE software (PLEXERA LLC, USA).

MDA-MB-231 cells [11] = experiment: Mitochondrial membrane potential (JC-1 staining); type: cell-based, human; conditions: 2 or 4 μM, 48 h
Description: The MMP was measured using JC-1 assay kit according to the manufacturer's protocol. Cells were treated with 2 or 4 μM compound M1 for 48 h. The cells were cultured with JC-1 staining reagent (1x) at 37°C for 20 min. Cells were washed twice by JC-1 staining buffer. Next, the fluorescence intensity of JC-1 aggregate or monomer was observed by fluorescent microscopic. The ratio of aggregates to monomers was estimated as a symbol of mitochondrial membrane potential.

[12] = test system: MDA-MB-231, T47D, and BT549 cells; experiment: CCK-8 cell viability, dose and time course in three breast cancer cell lines; type: cell-based, human; conditions: series of doses 72 h; time course at 5, 2, or 3 μM
Description: as §2, §3

Bcl-2 [13] = experiment: Western blot of Bcl-2 expression; type: cell-based, human; conditions: MDA-MB-231, T47D, and BT549 cells; different doses 48 h or 8 μM over time
Description: as §1

[14] = cited from earlier work
Mcl-1 = conditions: cited from earlier work
[15] = compound immobilized on chip, Bcl-2 protein 700 nM, read-out: KD, dissociation equilibrium constant

recombinant human Bcl-2 protein, sequence (P10415 whole entry): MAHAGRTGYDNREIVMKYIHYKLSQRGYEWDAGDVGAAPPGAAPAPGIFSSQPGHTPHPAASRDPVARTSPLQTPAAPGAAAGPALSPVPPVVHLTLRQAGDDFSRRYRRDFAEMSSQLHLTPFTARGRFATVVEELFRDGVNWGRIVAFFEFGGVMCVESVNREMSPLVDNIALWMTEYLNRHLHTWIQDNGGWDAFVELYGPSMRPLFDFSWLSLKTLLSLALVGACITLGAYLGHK

Compound: CC1(C)CCC(CN2CCN(c3ccc(C(=O)NS(=O)(=O)c4ccc(NCC5CCOCC5)c([N+](=O)[O-])c4)c(Oc4cnc5[nH]ccc5c4)c3)CC2)=C(c2ccc(Cl)cc2)C1 [ABT-199]
- tumor lysis syndrome ([1]; patients with chronic lymphocytic leukemia): tumor lysis syndrome was caused
- activity in patients with lymphoma ([1]; phase I trials): greater activity than ABT-263
- effects on platelet counts ([1]; phase I trials): no significant effects on platelet counts

Compound: CC1(C)CCC(c2ccc(Cl)cc2)=C(CN2CCN(c3ccc(C(=O)NS(=O)(=O)c4ccc(N[C@H](CCN5CCOCC5)CSc5ccccc5)c(S(=O)(=O)C(F)(F)F)c4)cc3)CC2)C1 [ABT-263]
- cytotoxicity against hematologic malignancies (hematologic malignancies): significant cytotoxicity
- thrombocytopenia [2]: can cause thrombocytopenia

Compound: CN(C)CC[C@H](CSc1ccccc1)Nc1ccc(S(=O)(=O)NC(=O)c2ccc(N3CCN(Cc4ccccc4-c4ccc(Cl)cc4)CC3)cc2)cc1[N+](=O)[O-] [ABT-737]
- cytotoxicity against hematologic malignancies (hematologic malignancies): significant cytotoxicity
- affinity with Bcl-xl (Bcl-xl): high affinity
- affinity with Bcl-2 (Bcl-2 [3]): high affinity
- thrombocytopenia [2]: can cause thrombocytopenia

Compound: COc1cc(N2C(C(C)=O)=NN(c3ccc(C)cc3)C2c2ccccc2OCc2ccccc2F)ccc1NC(=O)C(C)C (stereo not drawn) [M1]
- clonogenicity (MDA-MB-231 cells [4]): reduced in a dose-dependent manner
- level of generated ROS (MDA-MB-231 cells [5]): elevation in the level of generated ROS
- EdU-positive cells (MDA-MB-231 cells [6]): reduced number of EdU-positive cells
- apoptosis (Annexin V staining) (T47D cells [7]): dose-dependent increase in apoptosis
- cleaved PARP and cleaved caspase-3 (T47D and BT549 cells): increase
- IC50 (MDA-MB-231 cells [8]): 5 µM
- release of cytochrome c from mitochondria to cytosol (T47D cells [9]): increased the release of cytochrome c
- koff [10]: 0.00142 s⁻¹
- kon [10]: 4480 M⁻¹ s⁻¹
- Kd ([10]; M1, text and Figure 5B, read-out: KD): 0.37 µM
- Kd [10, 15]: 0.317 µM
- mitochondrial membrane potential (MMP) (MDA-MB-231 cells [11]): caused the disturbance of MMP
- cell proliferation (cell viability) [12]: inhibits cell proliferation in concentration- and time- dependent
- protein expression of Bcl-2 (Bcl-2 [13]): decreased the protein expression of Bcl-2

- IC50 (MDA-MB-231 cells [8]): > 50 µM
- Kd [10, 15]: 0.406 µM
Compound: Cc1ccc(S(=O)(=O)N(Cc2ccc(Cl)cc2)c2ccccc2C(=O)Nc2ccccc2C(=O)NC(C)c2ccccc2)cc1 (stereo not drawn) [M2]

- IC50 (MDA-MB-231 cells [8]): > 50 µM
- Kd [10, 15]: 0.856 µM
Compound: Cc1cc(C(=O)C2=C(O)C(=O)N(CCCN3CCOCC3)C2c2cccc(Oc3ccccc3)c2)ccc1OCc1ccccc1 (stereo not drawn) [M3]

- IC50 (MDA-MB-231 cells [8]): > 50 µM
- Kd [10, 15]: 4.76 µM
Compound: COc1cc(-c2cc(-c3ccccc3)nc(SCC(=O)Nc3cc(Cl)ccc3C)c2C#N)ccc1OCc1ccccc1 [M4]

- IC50 (MDA-MB-231 cells [8]): > 50 µM
- Kd [10, 15]: 0.57 µM
Compound: Cc1ccc(S(=O)(=O)N(Cc2ccc(Cl)cc2)c2ccccc2C(=O)Nc2ccc(S(=O)(=O)Nc3ccc(F)cc3)cc2)cc1 [M5]

- IC50 (MDA-MB-231 cells [8]): > 50 µM
- Kd [10, 15]: 0.0685 µM
Compound: COc1ccc(/C=c2/sc3n(c2=O)C(c2ccc(Cl)cc2)C(C(=O)Nc2ccccc2)=C(C)N=3)cc1COc1ccc(F)cc1F (stereo not drawn) [M6]

- IC50 (MDA-MB-231 cells [8]): > 50 µM
- Kd [10, 15]: 1.59 µM
Compound: CCN(CC)c1ccc(N2C(C(C)=O)=NN(c3ccc(Cl)cc3)C2c2ccccc2OCc2ccc(Cl)cc2Cl)cc1 (stereo not drawn) [M7]

- IC50 (MDA-MB-231 cells [8]): > 50 µM
- Kd [10, 15]: 10.8 µM
Compound: CCOc1cccc(C2N(c3ccccc3)N=C(C(C)=O)N2c2ccc(N3CCOCC3)c(Cl)c2)c1OCc1ccc(Cl)cc1Cl (stereo not drawn) [M8]

Compound: AT-101
- affinity with Bcl-xl (Bcl-xl): submicromolar concentrations
- affinity with Bcl-2 (Bcl-2 [3]): submicromolar concentrations
- clinical activity ([14]; early phase II trials, monotherapy or combination, lung and prostate cancers, ref Ready et al., 2011): failed to exert significant clinical activity
- tolerability in patients ([14]; ref Liu et al., 2009): well-tolerated
- affinity for Mcl-1 (Mcl-1): submicromolar concentrations
